The source made the active and inactive calls. The calls are words filed in the database; no cut-off is given here.
Columns and labels:
[1] = biological target: T1, Mu-type opioid receptor (Homo sapiens, UniProt P35372); assay: Agonist activity at human MOR expressed in CHO-K1 cells co-expressed with Galphai by cAMP assay; assay type: functional, cell-based
[2] = biological target: T1, Mu-type opioid receptor; assay: Agonist activity at human MOR expressed in CHO-K1 cells co-expressed with Galphai by cAMP assay relative to control; assay type: functional, cell-based
[3] = biological target: T2, Nociceptin receptor (Homo sapiens, UniProt P41146); assay: Agonist activity at human NOP receptor expressed in CHO-K1 cells co-expressed with Galphai by cAMP assay relative to control; assay type: functional, cell-based
T2 sequence (P41146 whole entry): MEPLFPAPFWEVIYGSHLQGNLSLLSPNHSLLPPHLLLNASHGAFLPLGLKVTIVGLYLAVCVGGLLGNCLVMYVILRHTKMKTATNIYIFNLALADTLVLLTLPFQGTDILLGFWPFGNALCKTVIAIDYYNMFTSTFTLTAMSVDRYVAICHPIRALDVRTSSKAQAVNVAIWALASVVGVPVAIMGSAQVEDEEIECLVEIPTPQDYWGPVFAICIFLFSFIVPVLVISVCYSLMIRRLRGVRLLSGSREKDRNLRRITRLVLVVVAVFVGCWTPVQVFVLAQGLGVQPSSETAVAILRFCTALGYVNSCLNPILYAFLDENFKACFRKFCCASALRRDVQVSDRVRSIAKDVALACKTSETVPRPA

[4] = biological target: T2, Nociceptin receptor; assay: Agonist activity at human NOP receptor expressed in CHO-K1 cells co-expressed with Galphai by cAMP assay; assay type: functional, cell-based
[5] = tested on: Mus musculus; assay: Antinociceptive activity in wild type C57BL/6 mouse assessed as maximum possible effect at 12 mg/kg measured upto 60 mins by tail-flick test; assay type: functional; conditions: 1 h
[6] = biological target: T1, Mu-type opioid receptor; assay: Displacement of [3H]-Diprenorphine from human MOR expressed in CHO-K1 cell membrane assessed as inhibition constant; assay type: cell membranes
[7] = biological target: T2, Nociceptin receptor; assay: Displacement of [3H]-Nociceptin from human NOP receptor expressed in CHO-K1 cell membrane assessed as inhibition constant; assay type: cell membranes
[8] = biological target: T1, Mu-type opioid receptor; assay: Agonist activity at human MOR expressed in CHO-K1 cells assessed as beta arrestin-2 recruitment; assay type: functional, cell-based
[9] = biological target: T2, Nociceptin receptor; assay: Agonist activity at human NOP receptor expressed in CHO-K1 cells assessed as beta arrestin-2 recruitment; assay type: functional, cell-based
[10] = Drug concentration in mouse plasma at 2 mg/kg,sc measured after 5 mins by ICP-MS analysis; assay type: ADME, organism-based
[11] = Drug concentration in mouse plasma at 2 mg/kg,sc measured after 60 mins by ICP-MS analysis; assay type: ADME, organism-based
[12] = Drug concentration in mouse brain at 2 mg/kg,sc measured after 5 mins by ICP-MS analysis; assay type: ADME, organism-based; conditions: read-out: Ct
[13] = Drug concentration in mouse brain at 2 mg/kg,sc measured after 60 mins by ICP-MS analysis; assay type: ADME, organism-based; conditions: read-out: Ct
[14] = Drug concentration in mouse intestine at 2 mg/kg,sc measured after 5 mins by ICP-MS analysis; assay type: ADME, organism-based; conditions: read-out: Ct
[15] = Drug concentration in mouse intestine at 2 mg/kg,sc measured after 60 mins by ICP-MS analysis; assay type: ADME, organism-based; conditions: read-out: Ct
[16] = biological target: T1, Mu-type opioid receptor; assay: Agonist activity at human MOR expressed in CHO-K1 cells assessed as decrease in intracellular cAMP level at 1 uM in presence of naltrexone; assay type: functional, cell-based; conditions: filed as agonist
[17] = biological target: T2, Nociceptin receptor; assay: Agonist activity at human NOP receptor expressed in CHO-K1 cells assessed as decrease in intracellular cAMP level at 1 uM in presence of BAN ORL 24; assay type: functional, cell-based; conditions: filed as agonist
[18] = tested on: Mus musculus; assay: Induction of motivational effect in C57BL/6 mouse assessed as increase in reward behaviour at 284 microg/kg, sc administered for 4 days and measured on day 6 by CPP analysis; assay type: functional, organism-based; conditions: dose 284.0 µg/kg, time 6.0 day
[19] = tested on: Mus musculus; assay: Induction of motivational effect in C57BL/6 mouse assessed as increase in number of jumps at 284 microg/kg, sc administered daily twice for 5 days by CPP analysis; assay type: functional, organism-based; conditions: dose 284.0 µg/kg, time 5.0 day
[20] = tested on: Mus musculus; assay: Antinociceptive activity in thermal stimulated sc dosed wild type C57BL/6 mouse measured upto 120 mins by tail flick test; assay type: functional; conditions: C57BL/6, 2 h
[21] = tested on: Mus musculus; assay: Antinociceptive activity in thermal stimulated wild type C57BL/6 mouse at 284 to 568 microg/kg, sc measured at 30 to 60 mins by tail flick test; assay type: functional, organism-based; conditions: dose 284-568 µg/kg, time 30-60 min
[22] = tested on: Mus musculus; assay: Antinociceptive activity in thermal stimulated MOR-knockout C57BL/6 mouse assessed as delay in flick tail at 252.8 microg/kg, sc measured upto 120 mins by tail flick test; assay type: functional, organism-based; conditions: dose 252.8 µg/kg
[23] = tested on: Mus musculus; assay: Antinociceptive activity in thermal stimulated sc dosed hMOR/mMOR knockout C57BL/6 mouse measured upto 120 mins by tail flick test; assay type: functional; conditions: C57BL/6, 2 h
[24] = tested on: Mus musculus; assay: Antinociceptive activity in thermal stimulated hMOR/mMOR knockout C57BL/6 mouse at 402 microg/kg,sc measured after 30 to 60 mins by tail flick test; assay type: functional, organism-based; conditions: dose 402.0 µg/kg, time 30-60 min
[25] = tested on: Mus musculus; assay: Antinociceptive activity in thermal stimulated wild type C57BL/6 mouse assessed as drug tolerance at 568 microg/kg, sc administered twice daily for 5 days and measured on day 1, 3, and 5 after 30 mins post drug treatment by tail flick test; assay type: functional, organism-based; conditions: dose 568.0 µg/kg, time 5.0 day
[26] = tested on: Mus musculus; assay: Antinociceptive activity in thermal stimulated hMOR/mMOR knockout C57BL/6 mouse assessed as drug tolerance at 402 microg/kg, sc administered twice daily for 5 days and measured on day 1, 3, and 5 after 30 mins post drug treatment by tail flick test; assay type: functional, organism-based; conditions: dose 402.0 µg/kg, time 5.0 day
[27] = tested on: Mus musculus; assay: Induction of motivational effect in C57BL/6 mouse assessed as increase in number of jumps at 2.5 microg/kg, sc administered daily twice for 5 days by CPP analysis; assay type: functional, organism-based; conditions: dose 2.5 µg/kg, time 5.0 day

T1 sequence (P35372 whole entry): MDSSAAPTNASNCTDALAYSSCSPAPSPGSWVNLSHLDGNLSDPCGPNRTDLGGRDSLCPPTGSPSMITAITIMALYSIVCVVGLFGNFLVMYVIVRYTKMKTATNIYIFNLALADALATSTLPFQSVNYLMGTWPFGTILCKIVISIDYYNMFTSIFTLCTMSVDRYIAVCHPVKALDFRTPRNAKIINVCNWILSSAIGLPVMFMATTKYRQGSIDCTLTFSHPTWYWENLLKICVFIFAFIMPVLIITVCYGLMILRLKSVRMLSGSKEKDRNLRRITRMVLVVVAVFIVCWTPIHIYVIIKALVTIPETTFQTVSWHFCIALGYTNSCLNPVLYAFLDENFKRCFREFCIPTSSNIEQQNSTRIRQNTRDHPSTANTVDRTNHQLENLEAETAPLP

SMILES: CN(C)C(CNC(=O)NCc1ccc(Cl)cc1)c1cccc(F)c1 (stereo unspecified)
- EC50 [1]: 0.00033 nM
- Emax ([2]; filed as agonist): 84.7%
- Emax [3]: < 20%

SMILES: CN(C)C(CNC(=O)NCCc1ccc(F)cc1)c1cccc(F)c1 (stereo unspecified)
- Emax ([2]; filed as agonist): 81.1%
- EC50 [4]: 0.000126 nM
- Emax ([3]; filed as agonist): 58.4%

SMILES: Cc1ccc(CCNC(=O)NCC(c2cccc(F)c2)N(C)C)cc1 (stereo unspecified)
- EC50 [1]: 15.1 nM
- Emax ([2]; filed as agonist): 80.7%
- EC50 [4]: 209 nM
- Emax ([3]; filed as agonist): 76.9%

SMILES: CN(C)C(CNC(=O)NCc1cccc(Cl)c1)c1cccc(F)c1 (stereo unspecified)
- EC50 [1]: 0.000102 nM
- Emax ([2]; filed as agonist): 92.5%
- EC50 [4]: 0.000126 nM
- Emax ([3]; filed as agonist): 91.6%
- MPE [5]: 100%
- Ki [6]: 0.4 nM
- Ki [7]: 0.2 nM
- EC50 [8]: 3.99 nM
- EC50 [9]: 0.2 nM
- concentration at 5 min [10]: 673 ng/mL
- concentration at 1 h [11]: 119 ng/mL
- concentration at 5 min [12]: 838 ng/g
- concentration at 1 h [13]: 237 ng/g
- concentration at 5 min [14]: 1290 ng/g
- concentration at 1 h [15]: 454 ng/g
- Activity [16]: Active
- Activity [17]: Active
- Activity [18]: inactive
- Activity [19]: inactive
- ED50 [20]: 0.284 mg/kg
- Activity [21]: Active
- Activity [22]: inactive
- ED50 [23]: 0.402 mg/kg
- Activity [24]: Active
- Activity [25]: inactive
- Activity [26]: inactive

SMILES: CN(C)C(CNC(=O)NCCc1cccc(F)c1)c1cccc(F)c1 (stereo unspecified)
- EC50 [1]: 0.000374 nM
- Emax ([2]; filed as agonist): 90.8%
- Emax ([3]; filed as agonist): 92.6%
- MPE [5]: 0%

SMILES: CN(C)C(CNC(=O)NC1CCCC1)c1cccc(F)c1 (stereo unspecified)
- Emax [2]: < 20%
- EC50 [4]: 2.6 nM
- Emax ([3]; filed as agonist): 67.1%

SMILES: CN(C)C(CNC(=O)NCCc1cccc(C(F)(F)F)c1)c1cccc(F)c1 (stereo unspecified)
- EC50 [1]: 0.0186 nM
- Emax ([2]; filed as agonist): 74.1%
- Emax [3]: < 20%

SMILES: CN(C)C(CNC(=O)NCCc1ccc(C(F)(F)F)cc1)c1cccc(F)c1 (stereo unspecified)
- EC50 [1]: 0.000501 nM
- Emax ([2]; filed as agonist): 88.5%
- EC50 [4]: 0.06 nM
- Emax ([3]; filed as agonist): 57.5%
- MPE [5]: 39.05%

SMILES: CN(C)C(CNC(=O)NCc1ccc(OC(F)(F)F)cc1)c1cccc(F)c1 (stereo unspecified)
- EC50 [1]: 1.52 nM
- Emax ([2]; filed as agonist): 76.9%
- EC50 [4]: 2420 nM
- Emax ([3]; filed as agonist): 61.9%

SMILES: CN(C)C(CNC(=O)NCc1ccc(C(F)(F)F)cc1)c1cccc(F)c1 (stereo unspecified)
- EC50 [1]: 0.19 nM
- Emax ([2]; filed as agonist): 93.3%
- EC50 [4]: 0.71 nM
- Emax ([3]; filed as agonist): 92.3%
- MPE [5]: 0%

SMILES: CN(C)C(CNC(=O)NCCc1ccc(Cl)cc1)c1cccc(F)c1 (stereo unspecified)
- Emax ([2]; filed as agonist): 72.4%
- EC50 [4]: 0.61 nM
- Emax ([3]; filed as agonist): 53.9%

SMILES: Cc1ccc(CNC(=O)NCC(c2cccc(F)c2)N(C)C)cc1 (stereo unspecified)
- Emax ([2]; filed as agonist): 88%
- Emax [3]: < 20%

SMILES: CN1CC[C@]23c4c5ccc(O)c4O[C@H]2[C@@H](O)C=C[C@H]3[C@H]1C5
- Activity [27]: Active

SMILES: CN1CCc2ccccc2C1CNC(=O)c1ccc(Cl)c(Cl)c1 (stereo unspecified)
- EC50 [1]: 0.0234 nM
- Emax ([2]; filed as agonist): 93.6%
- EC50 [4]: 0.17 nM
- Emax ([3]; filed as agonist): 87%

SMILES: CN(C)C(CNC(=O)NCCCc1ccccc1)c1cccc(F)c1 (stereo unspecified)
- EC50 [1]: 0.631 nM
- Emax ([2]; filed as agonist): 80.2%
- EC50 [4]: 0.711 nM
- Emax ([3]; filed as agonist): 66.6%

SMILES: CN(C)C(CNC(=O)NCc1ccc(F)cc1)c1cccc(F)c1 (stereo unspecified)
- Emax ([2]; filed as agonist): 96.1%
- Emax ([3]; filed as agonist): 93.2%
- MPE [5]: 100%

SMILES: CN(C)C(CNC(=O)NCCc1cccc(Cl)c1)c1cccc(F)c1 (stereo unspecified)
- Emax ([2]; filed as agonist): 89.9%
- Emax ([3]; filed as agonist): 91.6%
- MPE [5]: 0%

SMILES: CN(C)C(CNC(=O)NCc1cccc(OC(F)(F)F)c1)c1cccc(F)c1 (stereo unspecified)
- EC50 [1]: 0.0164 nM
- Emax ([2]; filed as agonist): 77.9%
- EC50 [4]: 0.02 nM
- Emax ([3]; filed as agonist): 80.4%

SMILES: CN(C)C(CNC(=O)NCCc1ccccc1)c1cccc(F)c1 (stereo unspecified)
- EC50 [1]: 21 nM
- Emax ([2]; filed as agonist): 86.6%
- EC50 [4]: 2.96 nM
- Emax ([3]; filed as agonist): 72%

SMILES: CN(C)C(CNC(=O)Nc1cccc(Cl)c1)c1cccc(F)c1 (stereo unspecified)
- EC50 [1]: 0.1 nM
- Emax ([2]; filed as agonist): 72.5%
- Emax [3]: < 20%

SMILES: CN(C)C(CNC(=O)NCc1cccc(C(F)(F)F)c1)c1cccc(F)c1 (stereo unspecified)
- EC50 [1]: 0.00066 nM
- Emax ([2]; filed as agonist): 85.2%
- Emax [3]: < 20%

SMILES: CN(C)C(CNC(=O)NCc1cccc(F)c1)c1cccc(F)c1 (stereo unspecified)
- Emax ([2]; filed as agonist): 91.2%
- Emax ([3]; filed as agonist): 89.8%

SMILES: Cc1cccc(CNC(=O)NCC(c2cccc(F)c2)N(C)C)c1 (stereo unspecified)
- EC50 [1]: 0.526 nM
- Emax ([2]; filed as agonist): 91.4%
- EC50 [4]: 2130 nM
- Emax ([3]; filed as agonist): 67.1%

SMILES: Cc1cccc(CCNC(=O)NCC(c2cccc(F)c2)N(C)C)c1 (stereo unspecified)
- Emax ([2]; filed as agonist): 89.7%
- Emax ([3]; filed as agonist): 67%
- MPE [5]: 0%

SMILES: CN(C)C(CNC(=O)Nc1ccc(Cl)c(Cl)c1)c1cccc(F)c1 (stereo unspecified)
- Emax ([2]; filed as agonist): 68.5%
- EC50 [4]: 37.2 nM
- Emax ([3]; filed as agonist): 74.1%

— ChEMBL document CHEMBL5620432 (Eur J Med Chem, 2023)
